Test results: ChEMBL document CHEMBL5729023, “Tricyclic compounds for use in treatment of proliferative disorders” (2022)

Target: PRMT5/MEP50 complex (Homo sapiens, UniProt O14744)
Test: Chemiluminescent Assay: A PRMT5 chemiluminescent assay was used to measure the […] activity of PRMT5. Biotinylated histone peptides were synthesized and attached to 384-well plates. Compound serial dilutions were performed and added to the assay plate. Histone H4 monomethyl R3 antibody was obtained from Abcam. A master mix for each well was prepared and human PRMT5/MEP50 (expressed in HEK293 cells) diluted in assay buffer to a concentration of 5 ng/μL. The reaction was incubated and slowly rotated for 60 minutes at the point of PRMT5/MEP50 addition. The supernatant from the wells was removed and blocking buffer was added to each well and rotated for 10 minutes. The primary antibody was diluted and added to every well for 60 minutes, before it was removed and the wells washed. The horse radish peroxidase (HRP)-coupled secondary antibody was diluted and added to each well with an incubation time of 30 minutes. The HRP chemiluminescent substrate was added to every well. The plate was read on a Flourstar Omega BMG Labtech instrument (Ortenberg, Germany) and the analysis of IC50 was performed using the Flourstar Omega BMG Labtech software.
Assay type: biochemical

PRMT5/MEP50 complex, sequence (O14744 whole entry): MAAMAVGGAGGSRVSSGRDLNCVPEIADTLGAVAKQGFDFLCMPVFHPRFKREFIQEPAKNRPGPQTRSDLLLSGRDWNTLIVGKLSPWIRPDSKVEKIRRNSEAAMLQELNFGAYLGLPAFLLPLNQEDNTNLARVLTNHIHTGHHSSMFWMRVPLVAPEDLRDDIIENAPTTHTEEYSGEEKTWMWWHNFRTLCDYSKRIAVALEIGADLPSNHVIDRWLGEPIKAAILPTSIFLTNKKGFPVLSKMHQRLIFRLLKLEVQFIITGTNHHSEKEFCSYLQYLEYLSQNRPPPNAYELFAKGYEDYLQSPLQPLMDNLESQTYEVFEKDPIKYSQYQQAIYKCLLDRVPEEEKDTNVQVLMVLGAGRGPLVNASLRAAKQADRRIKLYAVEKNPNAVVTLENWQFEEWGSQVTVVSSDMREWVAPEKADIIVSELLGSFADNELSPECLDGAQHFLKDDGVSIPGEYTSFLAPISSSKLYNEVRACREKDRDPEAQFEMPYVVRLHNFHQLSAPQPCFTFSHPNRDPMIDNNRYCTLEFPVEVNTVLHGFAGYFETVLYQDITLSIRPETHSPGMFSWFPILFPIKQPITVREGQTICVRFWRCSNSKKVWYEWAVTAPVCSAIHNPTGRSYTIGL
PRMT5/MEP50 complex, sequence (Q9BQA1 whole entry, further chain): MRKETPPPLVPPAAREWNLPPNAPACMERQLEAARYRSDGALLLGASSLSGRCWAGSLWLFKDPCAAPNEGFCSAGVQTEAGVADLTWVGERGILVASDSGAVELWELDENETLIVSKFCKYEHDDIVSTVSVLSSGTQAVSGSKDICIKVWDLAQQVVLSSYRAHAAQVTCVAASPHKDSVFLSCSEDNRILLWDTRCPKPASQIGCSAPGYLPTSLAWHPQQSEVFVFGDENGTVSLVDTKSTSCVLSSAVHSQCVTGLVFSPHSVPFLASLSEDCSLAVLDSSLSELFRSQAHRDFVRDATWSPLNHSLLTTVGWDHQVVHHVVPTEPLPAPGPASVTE

Structure (SMILES) | IC50 [µM]
O=C(NCC(O)CN1CCc2[nH]c3ccccc3c2C1)c1ccc(C(=O)N2C3CCC2COC3)cc1 (centres undefined) | 1.73
Cn1c2c(c3ccccc31)CN(CC(O)CNC(=O)c1ccc(C(=O)N3C4CCC3COC4)cc1)CC2 (centres undefined) | 3.34
CN1CCN(c2nc(NC3CCC3)cc(C(=O)NCC(O)CN3CCc4[nH]c5ccccc5c4C3)n2)CC1 (centres undefined) | 0.528
O=C(NCC(O)CN1CCc2[nH]c3ccccc3c2C1)c1cc(NC2CCC2)ncn1 (centres undefined) | 1.69
